Test results published in patent US20220081481A1, “USE OF AGENTS CAPABLE OF INDUCING LC3-ASSOCIATED PHAGOCYTOSIS FOR TREATING SUSTAINED INFLAMMATION IN PATIENTS SUFFERING FROM CHRONIC LIVER DISEASE” (INSERM (INSTITUT NATIONAL DE LA SANTÉ ET DE LA RECHERCHE …, priority 2019, published 2022).

System: PBMC from cirrhotic patients and healthy donors
Experiment: Western blot of LC3-II lipidation in PBMC
Format: cell-based, human
Conditions: 30 μM chloroquine diphosphate, data not shown
Experimental: Peripheral blood mononuclear cells (PBMC) and monocyte isolation. PBMC were prepared from the blood of cirrhotic patients and healthy donors, using Ficoll density gradient centrifugation (Ficoll Paque™-plus, GE Healthcare, 17-1440-02), as previously described^43.
Cell treatment. Human monocytes, THP1-XBlue™-CD14 (Invivogen, Catalog #thpx-cd14sp) and THP1-FcγRIIA+−CD14+(kindly provided by Novimmune) monocytes were used. When indicated cells were exposed to either 30 μM chloroquine diphosphate (Sigma, C6628), 10 mM 3-Methyladenine (3-MA, Sigma, M9281-100 mg), 10 mM Diphenyleneiodonium chloride (DPI, Sigma, D2926-10 mg), or 10 mg/ml IVIg (Privigen, 100 mg/ml) for 4 hrs at 37° C., as indicated. We also used commercially synthetized Tat-conjugated peptides (30 μM, GeneCust, Dudelange): i) the Tat-p22phox N8 peptide corresponding to eight N-terminal amino acids (3-10) of p22phox that blocks the Rubicon-p22phox interaction^19; ii) its control mutant Tat-N8W9A peptide, in which one tryptophan residue is replaced by Alanine^19). In some experiments, cells were exposed to the preformed complex (10 μg/ml of mouse anti-hFcγRII mAb (clone AT-10, Santa Cruz, sc-13527) F(ab′)2 fragments+20 μg/ml goat anti-mouse anti-kappa F(ab′)2 fragments (Southern Biotech, 1052-01) or to 100 μg/ml of anti-hFcγRIIA mAb F(ab′)2 fragments (clone IV.3), purified as we previously described^26. […]

CCN(CC)CCCC(C)Nc1ccnc2cc(Cl)ccc12 (centres unmarked) [chloroquine, chloroquine diphosphate]
LC3-II lipidation (PBMC from cirrhotic patients): further enhanced
LC3-II lipidation (cells from healthy donors): affected more marginally
